In US20070059756A1, “Immunointeractive molecules and their uses in treating subjects suffering from Hev b 5 allergies” (priority 1999, published 2007):

How the values were obtained:
Format in all cases: cell-based, human
[1] = tested on: latex specific T cell lines; assay: Oligoclonal T cell proliferation assay (3H-thymidine incorporation); design: key to Proliferation inducing (+) or non-inducing (−) peptide: Proliferation inducing and non-inducing peptides are indicated by (+) and (−) respectively; Proliferation inducing and non-inducing peptides are indicated by (+) and (−) respectively; conditions: for Oligoclonal proliferative response: 4 day cultures
Procedure: Latex specific T cell lines were isolated using our well established methods for the generation of allergen specific oligoclonal T cell populations (O'Hehir et al., 1987). An initial primary culture was performed for each patient to determine the optimal concentration of LAL for stimulation. For this, peripheral blood mononuclear cells (PBMC) separated from heparinised venous blood by density centrifugation (2×10^5/well) were stimulated with LAL over a concentration range 0.03 to 100 μg/ml, with control cultures of PBMC alone or stimulated with tetanus toxoid. All cultures were maintained in complete medium (RPMI-1640, Gibco Life Technologies supplemented with 2 mmol/L L-glutamine, 100 IU/ml penicillin-streptomycin and 5% screened, heat inactivated human AB serum [Sigma]). […] Therefore, to generate T cell lines, PBMC (2.5×10^6/well) were stimulated for 1 week with LAL at a concentration of 20 μg/ml in 24-well tissue culture plates (Costar, USA). After 7 days, lymphoblasts (1×10^6/well) were restimulated for one week with LAL at a concentration of 20 μg/ml in the presence of an equal number of irradiated (3000 rad) autologous PBMC as antigen presenting cells (APC). On days 2 and 4, cultures were supplemented with Lymphocult-T (5% v/v; Biotest Folex, Germany) and fresh medium. At the end of the second week, lymphoblasts were restimulated for one week with rhev b 5/MBP at a concentration of 20 μg/ml as described above. Oligoclonal T cells were recovered, washed and tested in proliferation and cytokine assays (as described below) either fresh or after cryopreservation in liquid nitrogen. We have previously shown that CD4^+ T cells are preferentially expanded in these cultures.
Oligoclonal T cell blasts (5×10^4) were incubated in 96-well round bottom plates (Linbro, ICN Biomedicals, USA) in triplicate with equal numbers of irradiated APC in the presence of LAL at concentrations ranging from 0.03-100 μg/ml, rHev b 5/MBP (10 and 20 μg/ml), MBP (10 and 20 μg/ml), overlapping peptides of the Hev b 5 sequence (10 and 30 μg/ml), Lymphocult-T (10 IU/ml) or PHA (3 μg/ml). Cultures of T cells and APC in the absence of antigen, T cells alone and APC alone in the absence of antigen were included as controls. After 72 hours cultures were pulsed with 1 μCi of ^3H-thymidine (^3HTdR; Du Pont, NEN) and harvested 12-16 hours later. Proliferation as correlated with ^3HTdR incorporation was measured by liquid scintillation spectroscopy. Results are expressed as mean counts per minute (cpm) for triplicate cultures with standard deviation (SD; ±20% for all experiments).

IL-5 = IL-5 production by latex specific oligoclonal T cells (ELISA on culture supernatants); conditions: for IL-5: supernatant at 48 hours; for secretion of IL-5 (in words): patient 4 T cell line
Procedure: (§1) Representative stimulatory and non-stimulatory peptides were selected and T cells cultured in triplicate with these peptides. At 48 hours 50 μl of supernatant was harvested from the cultures and IL-5 and IFNγ were assayed by ELISA using paired cytokine antibodies (from Pharmingen Becton Dickinson, USA and Endogen, USA respectively). For this, opaque flat bottom ELISA plates (Nalgene, Nunc International) were coated with 30 μl capture antibody at 2 μg/ml in 0.1 M NaHCO3 pH 8.2 coating buffer overnight at 4° C. After washing three times with PBS/0.5% Tween the wells were blocked with 3% BSA/PBS at room temperature for 2 hours. The plates were washed and 30 μL pooled triplicate culture supernatants added in duplicate. […] Light emission was read immediately on a Lumicount microplate Glow Luminometer (Packard Instrument Company). A standard curve was run each time using known concentrations of standard cytokine samples and the concentrations of IL-S and IFNγ in the culture supernatants calculated accordingly. The lower limit of detection of the IL-5 assay was 20 pg/ml and the lower limit of detection of the IFN-γ assay was 2 pg/ml.

IFNγ = IFNγ production by latex specific oligoclonal T cells (ELISA on culture supernatants); conditions: supernatant at 48 hours
Procedure: as §1

[2] = P1 T cell line, antigen 10 μg/ml
[3] = P1 T cell line, antigen 30 μg/ml
[4] = P2 T cell line, antigen 10 μg/ml
[5] = P2 T cell line, antigen 30 μg/ml
[6] = P3 T cell line, antigen 10 μg/ml
[7] = P3 T cell line, antigen 30 μg/ml
[8] = P4 T cell line, antigen 10 μg/ml
[9] = P4 T cell line, antigen 30 μg/ml
[10] = P5 T cell line, antigen 10 μg/ml
[11] = P5 T cell line, antigen 30 μg/ml
[12] = P6 T cell line, antigen 10 μg/ml
[13] = P6 T cell line, antigen 30 μg/ml
[14] = P1 T cell line, peptide 10 μg/ml
[15] = P1 T cell line, peptide 30 μg/ml
[16] = P2 T cell line, peptide 10 μg/ml
[17] = P2 T cell line, peptide 30 μg/ml
[18] = P4 T cell line, peptide 10 μg/ml
[19] = P4 T cell line, peptide 30 μg/ml
[20] = P3 T cell line, peptide 10 μg/ml
[21] = P3 T cell line, peptide 30 μg/ml

Row | Sequence | Oligoclonal proliferative response [1, 2] [counts per minute × 10^−3] | Oligoclonal proliferative response [1, 3] [counts per minute × 10^−3] | Oligoclonal proliferative response [1, 4] [counts per minute × 10^−3] | Oligoclonal proliferative response [1, 5] [counts per minute × 10^−3] | Oligoclonal proliferative response [1, 6] [counts per minute × 10^−3] | Oligoclonal proliferative response [1, 7] [counts per minute × 10^−3] | Oligoclonal proliferative response [1, 8] [counts per minute × 10^−3] | Oligoclonal proliferative response [1, 9] [counts per minute × 10^−3] | Oligoclonal proliferative response [1, 10] [counts per minute × 10^−3] | Oligoclonal proliferative response [1, 11] [counts per minute × 10^−3] | Oligoclonal proliferative response [1, 12] [counts per minute × 10^−3] | Oligoclonal proliferative response [1, 13] [counts per minute × 10^−3] | Proliferation inducing (+) or non-inducing (−) peptide ([1]; P1 T cell line) | Proliferation inducing (+) or non-inducing (−) peptide ([1]; P2 T cell line) | Proliferation inducing (+) or non-inducing (−) peptide ([1]; P4 T cell line) | IL-5 (IL-5; [14]) [pg/mL] | IL-5 (IL-5; [15]) [pg/mL] | IL-5 (IL-5; [16]) [pg/mL] | IL-5 (IL-5; [17]) [pg/mL] | IL-5/IFNγ ratio (IL-5; [18]) | further results
1 | AEEEKPITEAAETATTEVPV [Hev b 5 (127-146)] | 3.3 | 4.4 | 3.8 | 6.6 | 7.1 | 8.3 | 2.2 | 1.6 | 2.7 | 2.5 | 1.0 | 0.8 | – | – | – | – | – | – | – | – | –
2 | APAEPEAPAPETEKAEEVEK [Hev b 5 (55-74)] | 5.0 | 7.7 | 2.8 | 5.6 | 9.1 | 8.2 | 2.0 | 2.8 | 1.1 | 0.7 | 0.7 | 0.9 | 55-74 (−) | 55-74 (−) | 55-74 (+) | 0 | 0 | 0 | 0 | 70 | IL-5 (IL-5; [18]): 70 pg/mL; IL-5/IFNγ ratio (IL-5; [19]): 199; IL-5 (IL-5; [19]): 199 pg/mL; secretion of IL-5 (in words) (IL-5): secretion of IL-5; IFNγ (IFNγ; [14]): 0 pg/mL; IFNγ (IFNγ; [15]): 0 pg/mL; IFNγ (IFNγ; [16]): 2 pg/mL; IFNγ (IFNγ; [17]): 4 pg/mL; IFNγ (IFNγ; [18]): 0 pg/mL; IFNγ (IFNγ; [19]): 0 pg/mL
3 | ASEQETADATPEKEEPTAAP [Hev b 5 (37-56)] | 7.1 | 8.5 | 18.3 | 38.8 | 8.8 | 2.7 | 3.0 | 3.2 | 1.4 | 1.1 | 1.4 | 0.9 | 37-56 (−) | 37-56 (+) | 37-56 (+) | 0 | 0 | 744 | 767 | 173 | IL-5/IFNγ ratio (IL-5; [16]): 10.1; IL-5/IFNγ ratio (IL-5; [17]): 10; IL-5 (IL-5; [18]): 173 pg/mL; IL-5/IFNγ ratio (IL-5; [19]): 49.3; IL-5 (IL-5; [19]): 296 pg/mL; secretion of IL-5 (in words) (IL-5): secretion of IL-5; IFNγ (IFNγ; [14]): 0 pg/mL; IFNγ (IFNγ; [15]): 0 pg/mL; IFNγ (IFNγ; [16]): 74 pg/mL; IFNγ (IFNγ; [17]): 77 pg/mL; IFNγ (IFNγ; [18]): 0 pg/mL; IFNγ (IFNγ; [19]): 6 pg/mL
4 | TKETETEAPAAPAEGEKPAE [Hev b 5 (109-128)] | 8.2 | 5.6 | 36.9 | 42.7 | 13.7 | 17.3 | 2.3 | 3.0 | 1.3 | 0.9 | 0.9 | 0.6 | 109-128 (−) | 109-128 (+) | 109-128 (+) | 0 | 69 | 293 | 595 | 166 | Proliferation inducing (+) or non-inducing (−) peptide ([1]; P3 T cell line): 109-128 (+); donors whose T cells proliferated in response to the peptide ([1]; five donors with IgE reactivity to rHev b 5/MBP): three of the five donors; IL-5/IFNγ ratio (IL-5; [16]): 4; IL-5/IFNγ ratio (IL-5; [17]): 6.1; IL-5/IFNγ ratio (IL-5; [20]): 5.5; IL-5 (IL-5; [20]): 1403 pg/mL; IL-5/IFNγ ratio (IL-5; [21]): 5.3; IL-5 (IL-5; [21]): 1559 pg/mL; IL-5 (IL-5; [18]): 166 pg/mL; IL-5/IFNγ ratio (IL-5; [19]): 212; IL-5 (IL-5; [19]): 212 pg/mL; secretion of IL-5 (in words) (IL-5): secretion of IL-5; IFNγ (IFNγ; [14]): 0 pg/mL; IFNγ (IFNγ; [15]): 0 pg/mL; IFNγ (IFNγ; [16]): 73 pg/mL; IFNγ (IFNγ; [17]): 97 pg/mL; IFNγ (IFNγ; [20]): 257 pg/mL; IFNγ (IFNγ; [21]): 292 pg/mL; IFNγ (IFNγ; [18]): 0 pg/mL; IFNγ (IFNγ; [19]): 0 pg/mL
